Experimental data: patent US8283345B2, “Azetidine analogues of nucleosidase and phosphorylase inhibitors” (Industrial Research Limited, priority 2006, dated 2012)
pKi: −log10 of the molar value. Counter-ions that a name gives are not always drawn. Like-named read-outs stand apart in the source and are kept apart here. Values belong to the compound of their own block, whether it stands above or below them.

Columns and labels:
Human MTAP = biological target: T1, Human MTAP (Homo sapiens, UniProt Q13126); experiment: MTAP inhibition, xanthine oxidase coupled assay; format: biochemical; conditions: MTA Km 5 μM
T1 sequence (Q13126 1-283): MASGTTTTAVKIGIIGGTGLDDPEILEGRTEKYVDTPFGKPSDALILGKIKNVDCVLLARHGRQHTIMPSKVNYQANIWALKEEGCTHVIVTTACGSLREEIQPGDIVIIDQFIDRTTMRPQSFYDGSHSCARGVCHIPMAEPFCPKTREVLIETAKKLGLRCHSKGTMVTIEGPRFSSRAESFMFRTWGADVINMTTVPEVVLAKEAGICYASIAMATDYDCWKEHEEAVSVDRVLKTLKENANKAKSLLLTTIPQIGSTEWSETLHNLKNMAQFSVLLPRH

E. coli MTAN = E. coli MTAN (Escherichia coli, UniProt P0AF12); experiment: MTAN inhibition, xanthine oxidase coupled assay; format: biochemical; conditions: MTA Km 0.43 μM
Procedure: (§1) For PNP assays, inosine and inhibitor concentrations were determined spectrophotometrically using an ε260 of 7.1 mM^−1 cm^−1 (pH 6) [Dawson' et al, Data for Biochemical Research, 3rd ed., 1986, Clarendon Press, Oxford, U.K.] and an ε261 of 9.54 mM^−1 cm^−1 (pH 7) [Lim, M.-I.; Ren, Y.-Y.; Otter, B. A.; Klein, R. S., J. Org. Chem. 1983, 48, 780-788], respectively. For MTAN/MTAP assays, methylthioadenosine and inhibitor concentrations were determined using an ε260 of 14.9 mM^−1 cm^−1 (pH 6) [Dawson et al, as above] and an ε275 of 8.5 mM^−1 cm^−1 (pH 7), [J. Org. Chem. 1983, 48, 780-788] respectively. PNP and MTAN/MTAP activities were monitored by xanthine oxidase coupled assays, as previously described [Biochemistry, 2006, 45, 12929-12941; Biochemistry, 1998, 37, 8615-8621]. In all cases, the inhibitor concentration was at least 10-fold greater than the enzyme concentration, as required for simple analysis of slow-onset tight-binding inhibition [Morrison, J. F.; Walsh, C. T. Adv. Enzymol. Relat. Areas Mol. Biol., 1988, 61, 201-301] Michaelis constants used in data fitting were as follows: 40 μM, 34 μM, and 5 μM for inosine with human, bovine, and P. falciparum PNPs, respectively; 5 μM, 0.43 μM, and 23 μM for MTA with human MTAP, E. coli MTAN, and S. pneumoniae MTAN, respectively.

S. pneumoniae MTAN = S. pneumoniae MTAN (Streptococcus pneumoniae, UniProt Q8DQ16); experiment: MTAN inhibition, xanthine oxidase coupled assay; format: biochemical; conditions: MTA Km 23 μM
S. pneumoniae MTAN, sequence (Q8DQ16 entry or part of it): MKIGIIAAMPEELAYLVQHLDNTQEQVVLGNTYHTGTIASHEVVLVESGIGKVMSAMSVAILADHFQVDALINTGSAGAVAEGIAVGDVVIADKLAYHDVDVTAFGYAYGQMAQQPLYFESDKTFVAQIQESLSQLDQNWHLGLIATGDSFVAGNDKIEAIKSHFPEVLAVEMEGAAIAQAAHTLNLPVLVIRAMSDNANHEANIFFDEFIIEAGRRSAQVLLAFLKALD
Procedure: as §1

Human PNP = biological target: T2, Human PNP (Homo sapiens, UniProt P00491); experiment: PNP inhibition, xanthine oxidase coupled assay; format: biochemical; conditions: inosine Km 40 μM
T2 sequence (P00491 1-289): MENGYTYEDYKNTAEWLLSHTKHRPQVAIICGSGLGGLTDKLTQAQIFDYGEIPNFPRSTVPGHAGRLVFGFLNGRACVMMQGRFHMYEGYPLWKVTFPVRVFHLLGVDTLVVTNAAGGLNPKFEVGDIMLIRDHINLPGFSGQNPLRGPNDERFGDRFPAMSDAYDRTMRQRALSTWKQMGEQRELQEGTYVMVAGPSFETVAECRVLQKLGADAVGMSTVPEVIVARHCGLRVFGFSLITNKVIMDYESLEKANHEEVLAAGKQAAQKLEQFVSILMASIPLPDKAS
Procedure: (§2) PNP and MTAN/MTAP activities were monitored by xanthine oxidase coupled assays, as previously described [Biochemistry, 2006, 45, 12929-12941; Biochemistry, 1998, 37, 8615-8621]. […] Michaelis constants used in data fitting were as follows: 40 μM, 34 μM, and 5 μM for inosine with human, bovine, and P. falciparum PNPs, respectively; 5 μM, 0.43 μM, and 23 μM for MTA with human MTAP, E. coli MTAN, and S. pneumoniae MTAN, respectively.

Bovine PNP = biological target: T3, Bovine PNP (Bos taurus, UniProt P55859); experiment: PNP inhibition, xanthine oxidase coupled assay; format: biochemical
T3 sequence (P55859 1-289): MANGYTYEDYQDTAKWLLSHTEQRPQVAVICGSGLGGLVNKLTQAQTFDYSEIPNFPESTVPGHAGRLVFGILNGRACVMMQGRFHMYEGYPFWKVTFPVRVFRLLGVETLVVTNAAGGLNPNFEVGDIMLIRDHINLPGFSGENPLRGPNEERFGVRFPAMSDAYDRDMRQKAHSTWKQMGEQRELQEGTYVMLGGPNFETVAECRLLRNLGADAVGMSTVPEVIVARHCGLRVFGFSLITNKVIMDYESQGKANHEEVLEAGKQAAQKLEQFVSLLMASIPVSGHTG
Procedure: as §2

P. falciparum PNP = biological target: T4, P. falciparum PNP (Plasmodium falciparum, UniProt Q8I3X4); experiment: biochemical
T4 sequence (Q8I3X4 1-245): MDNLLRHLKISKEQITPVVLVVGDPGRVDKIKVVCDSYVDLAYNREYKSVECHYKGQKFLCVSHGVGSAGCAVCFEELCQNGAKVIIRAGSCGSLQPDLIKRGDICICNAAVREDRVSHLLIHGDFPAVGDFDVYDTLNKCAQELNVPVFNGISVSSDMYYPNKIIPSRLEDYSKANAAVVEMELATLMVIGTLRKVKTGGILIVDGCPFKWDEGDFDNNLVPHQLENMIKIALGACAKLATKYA
Procedure: as §2

[1] = inhibition constant Ki, read-out: Ki Human PNP
[2] = inhibition constant Ki, inosine Km 34 μM, read-out: Ki Bovine PNP

SMILES: CSCC1CN(Cc2c[nH]c3c(N)ncnc23)C1 [Compound 22, 1-[(9-Deazaadenin-9-yl)methyl]-3-methylthiomethylazetidine]
pKi (Human MTAP): 8.70
pKi (E. coli MTAN): 9.35
pKi (S. pneumoniae MTAN): 7.08

pKi (Human PNP; [1]): 9.64
pKi (Bovine PNP): 10.19
pKi (Bovine PNP; Ki*, slow-onset tight-binding inhibition, inosine Km 34 μM, read-out: Ki* Bovine PNP): 9.63
pKi (P. falciparum PNP): < 5.00
SMILES: O=c1[nH]cnc2c(CN3CC(CO)(CO)C3)c[nH]c12 [Compound 18, 1-[(9-Deazahypoxanthin-9-yl)methyl]azetidine-3,3-dimethanol]

pKi (Human PNP; Ki Human PNP, inhibition constant Ki): 8.74
pKi (Human PNP; Ki* Human PNP, Ki*, slow-onset tight-binding inhibition): 9.59
pKi (Bovine PNP): 8.74
SMILES: O=c1[nH]cnc2c(CN3CCC3CO)c[nH]c12 (racemic) [(±)-43, (±)7-((2-(Hydroxymethyl)azetidin-1-yl)methyl)-5H-pyrrolo[3,2-d]pyrimidin-4-ol]

SMILES: O=c1[nH]cnc2c(CN3[C@H](CO)C[C@H]3CO)c[nH]c12 (racemic) [(±)-37, (±)2,4-trans-[(9-Deazahypoxanthin-9-yl)methyl]azetidine-2,4-dimethanol hydrochloride]
pKi (Human PNP; [1]): 6.55
pKi (Bovine PNP; [2]): 6.44
pKi (P. falciparum PNP): 6.24

SMILES: CSCC1(CO)CN(Cc2c[nH]c3c(N)ncnc23)C1 [Compound 21, 1-[(9-Deazaadenin-9-yl)methyl]-3-methylthiomethylazetidine-3-methanol hydrochloride]
pKi (Human MTAP): 6.85
pKi (E. coli MTAN): 9.08
pKi (S. pneumoniae MTAN): 6.82

pKi (Human PNP; [1]): 8.20
pKi (Bovine PNP; [2]): 8.32
pKi (P. falciparum PNP; read-out: Ki P. falciparum PNP): < 5.00
SMILES: O=c1[nH]cnc2c(CN3CC(CO)C3)c[nH]c12 [Compound 19, 1-[(9-Deazahypoxanthin-9-yl)methyl]azetindine-3-methanol]

SMILES: O=c1[nH]cnc2c(CN3[C@H](CO)C[C@@H]3CO)c[nH]c12 [Compound 36, meso-[(9-Deazahypoxanthin-9-yl)methyl]azetidine-2,4-dimethanol hydrochloride]
pKi (Human PNP; [1]): 7.89
pKi (Bovine PNP; [2]): 7.80
pKi (P. falciparum PNP): 5.89
